# pIC50, pKd: −log10 of the molar value. Where a SMILES comes first, the peptide text is derived from it. Bridges are numbered along the chain shown (N, C = ends). [ ]: non-standard residue; d: D form. The star is where a group is joined. hPhe(3,5-F2-4-CF3) = N[C@@H](CCc1cc(F)c(C(F)(F)F)c(F)c1)C(=O)O; hPhe(3-Cl-4-CF3) = N[C@@H](CCc1ccc(C(F)(F)F)c(Cl)c1)C(=O)O; NEtPhe(4-Me) = CCN[C@@H](Cc1ccc(C)cc1)C(=O)O; NMePhe(4-Cl) = CN[C@@H](Cc1ccc(Cl)cc1)C(=O)O; Phe(3-Cl) = N[C@@H](Cc1cccc(Cl)c1)C(=O)O; NMeGly(cPent) = CN[C@H](C(=O)O)C1CCCC1; Phe(4-F) = N[C@@H](Cc1ccc(F)cc1)C(=O)O; 2Nal = N[C@@H](Cc1ccc2ccccc2c1)C(=O)O; NMeCha = CN[C@@H](CC1CCCCC1)C(=O)O; NMeF = CN[C@@H](Cc1ccccc1)C(=O)O; NMeD = CN[C@@H](CC(=O)O)C(=O)O; NMeL = CN[C@@H](CC(C)C)C(=O)O; NMeV = CN[C@H](C(=O)O)C(C)C; NMeA = CN[C@@H](C)C(=O)O; Nle = CCCC[C@H](N)C(=O)O; Pyrrolidide = C1CCN(*)C1; Ac5c = NC1(C(=O)O)CCCC1; Aze = O=C(O)[C@@H]1CCN1; β3hA = C[C@H](N)CC(=O)O; Sar = CNCC(=O)O
# Assays:
# GTPase KRas/RAF1 = GTPase KRas/RAF1 (Homo sapiens, UniProt P01116); assay: Inhibition of KRAS/RAF interaction (unknown origin) by HTRF assay; format: protein assay
# Chain of GTPase KRas/RAF1 (P04049 whole entry, the tested form may be a part): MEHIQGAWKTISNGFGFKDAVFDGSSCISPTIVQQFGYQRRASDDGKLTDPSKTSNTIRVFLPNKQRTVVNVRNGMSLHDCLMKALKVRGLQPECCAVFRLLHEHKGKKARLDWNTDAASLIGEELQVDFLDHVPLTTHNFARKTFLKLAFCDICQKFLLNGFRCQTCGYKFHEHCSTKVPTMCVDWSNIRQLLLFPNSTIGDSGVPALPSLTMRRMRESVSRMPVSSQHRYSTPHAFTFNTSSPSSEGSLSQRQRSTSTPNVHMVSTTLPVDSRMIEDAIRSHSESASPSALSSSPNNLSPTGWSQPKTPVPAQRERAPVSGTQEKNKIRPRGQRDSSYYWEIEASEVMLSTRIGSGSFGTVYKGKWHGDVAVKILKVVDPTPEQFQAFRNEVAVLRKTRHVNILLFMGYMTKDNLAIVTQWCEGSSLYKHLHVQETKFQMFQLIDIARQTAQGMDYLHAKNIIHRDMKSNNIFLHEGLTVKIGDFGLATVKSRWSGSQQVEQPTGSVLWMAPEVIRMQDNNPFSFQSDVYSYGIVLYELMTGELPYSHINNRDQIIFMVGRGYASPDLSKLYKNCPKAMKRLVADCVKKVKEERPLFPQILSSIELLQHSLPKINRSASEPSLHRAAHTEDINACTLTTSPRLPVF
# Chain of GTPase KRas/RAF1 (P01116 whole entry, the tested form may be a part): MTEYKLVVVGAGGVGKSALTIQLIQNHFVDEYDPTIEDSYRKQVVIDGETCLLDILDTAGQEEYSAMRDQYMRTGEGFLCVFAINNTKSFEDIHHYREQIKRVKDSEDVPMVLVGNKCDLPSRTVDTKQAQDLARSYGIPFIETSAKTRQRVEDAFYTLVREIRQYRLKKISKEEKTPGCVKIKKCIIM
# [1] = Inhibition of Biotinylated Avi-tagged KRas G12D mutant/GST tagged Raf1-RBD domain (1 to 149 residues) (unknown origin) incubated for 1 hr by TR-FRET assay; set-up: species or system Homo sapiens
# GTPase KRas [2] = molecular target: T1, GTPase KRas (Homo sapiens, UniProt P01116); assay: Inhibition of KRas (unknown origin)
# T1 sequence (P01116 whole entry): as the sequence (P01116 whole entry, the tested form may be a part) above
# SOS1-KRAS = SOS1-KRAS (Homo sapiens, UniProt P01116, G12D); assay: Inhibition of KRAS G12D mutant/SOS1 (unknown origin) interaction by TR-FRET assay; format: protein-complex assay
# Chain of SOS1-KRAS (P01116 whole entry G12D, looked up): as the sequence (P01116 whole entry, the tested form may be a part) above, with G12D counted along it
# GTPase KRas [3] = molecular target: T1, GTPase KRas; assay: Binding affinity to KRas (unknown origin) assessed as dissociation constant
smiles,measurement,setting,value
CCCC[C@@H]1NC(=O)[C@H](Cc2ccc(F)cc2)NC(=O)[C@H](CCCNC(=N)N)NC(=O)[C@H](Cc2ccc3ccccc3c2)NC(=O)[C@H](CCCNC(=N)N)NC(=O)[C@H](CCCNC(=N)N)NC(=O)[C@H](CCCNC(=N)N)NC(=O)[C@H](C)NC(=O)[C@H]([C@@H](C)O)NC(=O)[C@H](Cc2c[nH]c3ccccc23)NC(=O)[C@H](CCC(N)=O)NC1=O (cyclo([2Nal]R[Phe(4-F)][Nle]QWTARRR)),pIC50,GTPase KRas/RAF1,6.92
CC[C@H](C)[C@@H]1NC(=O)[C@H](Cc2ccccc2)NC(=O)[C@H](CCCCN)NC(=O)[C@H](CCC(=O)O)NC(=O)[C@H]([C@@H](C)O)NC(=O)[C@H](C(C)C)NC(=O)[C@H]([C@@H](C)CC)NC(=O)[C@H]([C@@H](C)CC)NC(=O)[C@H](Cc2ccc(O)cc2)NC(=O)CSC[C@@H](C(=O)NCC(N)=O)NC(=O)[C@H](Cc2c[nH]cn2)NC(=O)[C@H](Cc2c[nH]cn2)NC(=O)[C@H](C(C)C)NC(=O)[C@H](Cc2c[nH]c3ccccc23)NC1=O,pIC50,[1],5.52
CC[C@H](C)[C@@H]1NC(=O)[C@@H]2CCCN2C(=O)[C@H](Cc2ccc(O)cc2)NC(=O)[C@@H](NC(=O)[C@H](CC(=O)O)NC(=O)[C@H](Cc2ccc(O)cc2)NC(=O)[C@H](Cc2ccccc2)NC(=O)[C@H](Cc2c[nH]cn2)NC(=O)[C@@H](N)Cc2ccccc2)CC#CC[C@@H](C(=O)N[C@@H](CC(C)C)C(=O)N[C@H](C(=O)N2CCC[C@H]2C(=O)N2CCC[C@H]2C(N)=O)[C@@H](C)CC)NC1=O,pIC50,GTPase KRas [2],7.64
CC(C)C[C@H](NC(=O)C1CCCOCc2cnnn2CCC(=O)NCC(=O)N2CCC[C@H]2C(=O)N[C@@H](Cc2cccc3ccccc23)C(=O)N1)C(N)=O (stereo partly specified),pIC50,GTPase KRas [2],5.15
CCCC[C@@H]1NC(=O)[C@H](Cc2ccc(F)cc2)NC(=O)[C@H](CCCNC(=N)N)NC(=O)[C@H](Cc2ccc3ccccc3c2)NC(=O)[C@H](CCCNC(=N)N)NC(=O)[C@H](CCCNC(=N)N)NC(=O)[C@H](CCC(N)=O)NC(=O)[C@H](C)NC(=O)[C@H]([C@@H](C)O)NC(=O)[C@H](Cc2c[nH]c3ccccc23)NC(=O)[C@H](CO)NC1=O (cyclo([2Nal]R[Phe(4-F)][Nle]SWTAQRR)),pIC50,GTPase KRas/RAF1,6.19
"CC[C@H](C)[C@@H]1NC(=O)[C@H](CC(C)C)N(C)C(=O)C[C@@H](C(=O)N(C)C)N(C)C(=O)[C@H](C2CCCC2)N(C)C(=O)C2(CCCC2)NC(=O)[C@@H]2CCCN2C(=O)[C@H](CCc2cc(F)c(C(F)(F)F)c(F)c2)NC(=O)CN(C)C(=O)[C@H](Cc2ccc(C)cc2)N(CC)C(=O)[C@@H]2CCN2C(=O)[C@H](C)N(C)C1=O ([NMeL]I[NMeA][Aze][NEtPhe(4-Me)][Sar][hPhe(3,5-F2-4-CF3)]P[Ac5c][NMeGly(cPent)][NMeD]-NMe2; lactam N-11)",pIC50,SOS1-KRAS,> 8.70
Cc1[nH]c2cc(Cl)cc(Cl)c2c1CCN,pKd,GTPase KRas [3],~2.96
CC[C@H](C)[C@@H]1NC(=O)[C@H](C)N(C)C(=O)C[C@@H](C(=O)N2CCCC2)NC(=O)[C@H](C(C)C)N(C)C(=O)[C@H](Cc2ccccc2)N(C)C(=O)[C@H](Cc2c[nH]c3ccccc23)NC(=O)[C@H](Cc2cccc(Cl)c2)NC(=O)CN(C)C(=O)[C@H](Cc2ccc(Cl)cc2)N(C)C(=O)CN(C)C(=O)CN(C)C1=O ([NMeA]I[Sar][Sar][NMePhe(4-Cl)][Sar][Phe(3-Cl)]W[NMeF][NMeV]D-Pyrrolidide; lactam N-11),pIC50,SOS1-KRAS,7.27
CC[C@H](C)[C@@H]1NC(=O)[C@H](CC(C)C)N(C)C(=O)C[C@H](C)NC(=O)[C@H](C(C)C)N(C)C(=O)C2(CCCC2)NC(=O)[C@@H]2CCCN2C(=O)[C@H](CCc2ccc(C(F)(F)F)c(Cl)c2)NC(=O)CN(C)C(=O)[C@H](CC2CCCCC2)N(C)C(=O)[C@@H]2CCN2C(=O)[C@H](C)N(C)C1=O (cyclo([Ac5c][NMeV][β3hA][NMeL]I[NMeA][Aze][NMeCha][Sar][hPhe(3-Cl-4-CF3)]P)),pIC50,SOS1-KRAS,7.62
CC(C)C[C@H](NC(=O)C1CCCOCc2cnnn2CCC(=O)NCC(=O)N2CCCC[C@H]2C(=O)N[C@@H](Cc2cccc3ccccc23)C(=O)N1)C(N)=O (stereo partly specified),pIC50,GTPase KRas [2],5.11
C[C@@H](NC(=O)[C@H](Cc1ccccc1)NC(=O)[C@@H](CCCNC(=N)N)NC(=O)[C@H](CCCN)NC(=O)[C@@H]1CNC(=O)c2cc3cc(c2)C(=O)N[C@H](Cc2ccc4ccccc4c2)C(=O)N[C@@H](CO)C(=O)N[C@@H](CC(N)=O)C(=O)N[C@H](Cc2ccc4ccccc4c2)C(=O)N[C@@H](c2ccccc2)C(=O)N[C@@H](CCCCNC3=O)C(=O)N[C@H](Cc2ccccc2)C(=O)N[C@@H](CCC(N)=O)C(=O)N[C@H](CCCNC(=N)N)C(=O)CN[C@@H](CCCNC(=N)N)C(=O)N1)C(N)=O,pIC50,SOS1-KRAS,6.92

# From ChEMBL document CHEMBL6127081, “Peptide inhibitors targeting Ras and Ras-associated protein-protein interactions” (Eur J Med Chem, 2024)
